Results from PMC3976407, “Inhibition of Fatty Acid Binding Proteins Elevates Brain Anandamide Levels and Produces Analgesia” (PLoS ONE, 2014).

Legend:
FAAH = target: T1, FAAH (Mus musculus, UniProt O08914); test: AEA hydrolysis by brain and liver homogenates after injection of inhibitor; format: biochemical; settings: mouse brain and liver homogenates harvested 60 min after 20 mg/kg, i.p.; 30 μM [14C]AEA
T1 construct: from tissue; host or cells: mouse brain and liver homogenates
T1 sequence (O08914 1-579): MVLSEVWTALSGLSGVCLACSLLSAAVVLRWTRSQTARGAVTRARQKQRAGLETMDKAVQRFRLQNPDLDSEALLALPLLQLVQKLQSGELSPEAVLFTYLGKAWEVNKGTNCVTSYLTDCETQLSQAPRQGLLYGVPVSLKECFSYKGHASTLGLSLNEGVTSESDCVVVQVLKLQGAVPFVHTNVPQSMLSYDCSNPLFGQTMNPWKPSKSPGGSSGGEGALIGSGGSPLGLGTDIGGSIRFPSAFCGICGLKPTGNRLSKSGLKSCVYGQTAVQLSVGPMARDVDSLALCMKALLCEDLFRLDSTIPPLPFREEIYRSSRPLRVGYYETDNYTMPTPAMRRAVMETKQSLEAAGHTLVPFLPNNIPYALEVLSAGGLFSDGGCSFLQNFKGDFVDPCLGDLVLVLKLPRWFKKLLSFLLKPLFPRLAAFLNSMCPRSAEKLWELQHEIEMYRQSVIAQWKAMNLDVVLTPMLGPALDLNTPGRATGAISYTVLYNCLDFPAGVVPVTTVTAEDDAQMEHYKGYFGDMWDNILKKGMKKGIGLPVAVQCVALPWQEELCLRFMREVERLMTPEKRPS
Procedure: AEA and 2-OG hydrolysis was determined using modified protocols to those described previously, [35]. Mice were injected with inhibitors (20 mg/kg, i.p.) and the brains and livers were harvested 60 min later. The tissue homogenates were subsequently incubated with 30 μM [^14C]AEA or 10 μM [^3H]2-OG for 30 min. Reactions were stopped with two volumes of chloroform:methanol (1∶1) and the methanol phase was counted using a Beckman LS6500 scintillation counter.

[1] = tested on: formalin-induced nociception in mice; test: Formalin test; format: in vivo, mouse; settings: 20 mg/kg, i.p.
Procedure: Mice were habituated to the observation chamber (Plexiglas box, 25 cm×25 cm×25 cm) for 30 min prior to formalin injection. Mice were administered FABP inhibitors 60 min prior to formalin. The animals subsequently received an injection of formalin (2.5% in saline, 20 μl) into the plantar surface of the right hind paw using a 30 gauge needle and were immediately placed back into the observation chamber and nocifensive behavior (time spent licking or biting the paw) was recorded for 60 min. Nocifensive behavior was scored during the first phase (0–5 min) and the second phase (∼15–45 min) of the formalin test.

HeLa cells = test: Cytotoxicity, MTT colorimetric assay; format: cell-based; settings: 24 hr incubation, n = 3
Procedure: Cytotoxicity of the FABP inhibitors SBFI26 and BMS309403 were examined using the MTT [3-(4,5-dimethylthiazol-2-yl)-2,5 diphenyl tetrazolium bromide] colorimetric assay. HeLa cells were seeded into 96-well plates (15,000 cells/well) and incubated for 24 hours at 37°C in DMEM supplemented with 10% FBS, penicillin (100 U/mL) and streptomycin (100 μg/mL). The cells were subsequently washed with PBS and treated with serum-free DMEM containing 10 nM to 1 mM SBFI26, BMS309403, or 5 mM hydrogen peroxide as a positive control. Following a 24 hr incubation, the cells were washed with PBS and treated with MTT (0.5 mg/mL in PBS) for 4 hrs. The cells were subsequently solubilized using DMSO and the absorbance was read at 562 nm in a microplate reader.

rats subjected to CCI = test: Rat neuropathic pain model (chronic constriction injury of the sciatic nerve); format: in vivo; settings: 20 mg/kg i.p.
Description: Male Fisher 344 rats were habituated and pre-injury evoked responses were obtained. The Hargreaves test was used to assess thermal hyperalgesia. Briefly, plexiglass enclosures were set atop a plexiglass platform and infrared source set at 50% power located under the platform was used as the heat stimulus (Ugo Basile). A 200 mW, 535 nm diode laser was mounted in an adjustable stand placed beneath the plexiglass platform, and was used as an alternative heat stimulus for some of the animals in this study. The latency time to hind paw lift during heating of the plantar surface was recorded. Five recordings were obtained on each hind paw with at least 2 min rest between measurements. The maximum time for exposure to the infrared or diode laser source was 30.5 s to avoid any possible tissue injury. For mechanical threshold measurements, the animal enclosures rested on a screen with mesh of 0.5 cm spacing. Following acclimation, an electronic von Frey Anesthesiometer (IITC Life Sciences) was applied with increasing pressure to the plantar surface of the hind paw until the animals lifted the hind paw. The number of grams of force applied by the probe to induce withdrawal was recorded. Five recordings were obtained on each hind paw with at least 3 min between measurements. For CCI surgeries, our procedure closely followed that reported previously. Briefly, each animal received an i.p. injection of ketamine/xylazine (75 mg/kg and 10 mg/kg, respectively). The hind leg was surgically prepped and the anesthetized animal placed prone on an sterile towel over a heating pad. The temperature was monitored rectally. A skin incision was made mid-thigh with a medium curved scalpel and then scissors were used to expose the sciatic nerve. Approximately 1 cm of the main trunk proximal to the trifuraction was isolated and 4 strands of 4-0 chromic gut were tied around the nerve ∼ 1 mm apart under magnification. In a modification of the original method, a 2-0 prolene strand was placed between the nerve and the gut to which the suture was tightened. The prolene strand was then removed. This prevented over tightening and reduced subsequent motor paralysis. The muscle layers were then reopposed and sutured, and surgical staples were used to close the skin. On post-injury days 7 through 10, heat and mechanical measurements were obained for the ipsilateral hindpaw of each CCI animal. Immediately following the post-injury measurements, animals were randomized and received i.p. injections of vehicle or 20 mg/kg SBI26 (DMSO:cremophor:sterile saline 1∶1∶2 by volume). Up to 0.8 ml of drug or vehicle was injected. The observer was blinded as to administration of drug or vehicle. Thermal and mechanical measurements were performed at 1 and 4 h post-injection. Data were normalized to pre-injury baseline measurements for each animal.

FABP3 = FABP3 (Homo sapiens, UniProt P05413); test: NBD-stearate fluorescence displacement binding
FABP3, sequence (P05413 whole entry, species assumed): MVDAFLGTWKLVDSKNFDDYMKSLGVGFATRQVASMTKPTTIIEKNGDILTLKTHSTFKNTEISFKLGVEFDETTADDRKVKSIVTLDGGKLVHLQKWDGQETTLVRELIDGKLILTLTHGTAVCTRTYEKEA
Procedure: Inhibitory constant (Ki) values were elucidated utilizing NBD-stearate fluorescence displacement as described previously [9], [31]. The tests were performed in 96-well plates containing inhibitors (0.1 – 50.0 μM), FABP, and NBD-stearate. Fluorescence intensity was measured with a FLUOstar OPTIMA spectrofluorometer with excitation and emission wavelengths of 460 and 544 nm, respectively.

## O=C(O)C1C(c2ccccc2)C(C(=O)Oc2cccc3ccccc23)C1c1ccccc1 (stereo not drawn) [SBFI26, alpha-2,4-diphenylcyclobutane-1,3-dicarboxylic acid mono-1-naphthyl ester]
FAAH
  Inhibition of AEA hydrolysis: did not inhibit
[1]; first phase 0–5 min
  Effect upon first phase of formalin-induced nociception: reduced
[1]; second phase ∼15–45 min
  Effect upon second phase of formalin-induced nociception: reduced
HeLa cells
  Cytotoxicity _50 values: 31.1 ± 4.1 µM
Rats subjected to CCI
  Persistence of the effect on thermal hyperalgesia in CCI rats: up to 4 hrs
Rats subjected to CCI; 1 and 4 h
  Effect on mechanical thresholds in CCI rats: Neither compound altered
Rats subjected to CCI; measured 1 and 4 h post-injection
  Effect on thermal hyperalgesia in CCI rats: completely reversed
FABP3
  Ki: 3.9 ± 0.7 µM
